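Five concentrations, 48 hours, 96-well plates. Here, GI50 denotes the concentration required for 50% inhibition of growth. TGI is the concentration that stops growth completely.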
Legend:
Assay in all cases: DTP human tumour cell line panel, 48 h
M14 melanoma = test system: M14 melanoma
SW-620 colon = test system: SW-620 colon
KM12 colon = test system: KM12 colon
SK-MEL-2 melanoma = test system: SK-MEL-2 melanoma
LOX IMVI melanoma = test system: LOX IMVI melanoma
K-562 leukemia = test system: K-562 leukemia
HOP-62 NSCLC = test system: HOP-62 NSCLC
SK-MEL-28 melanoma = test system: SK-MEL-28 melanoma
COLO 205 colon = test system: COLO 205 colon
NCI/ADR-RES ovarian = test system: NCI/ADR-RES ovarian
PC-3 prostate = test system: PC-3 prostate
SN12C renal = test system: SN12C renal
SK-OV-3 ovarian = test system: SK-OV-3 ovarian
NCI-H226 lung = test system: NCI-H226 lung
HCT-15 colon = test system: HCT-15 colon
CAKI-1 renal = test system: CAKI-1 renal
UACC-257 melanoma = test system: UACC-257 melanoma
HOP-92 NSCLC = test system: HOP-92 NSCLC
EKVX NSCLC = test system: EKVX NSCLC
CCRF-CEM leukemia = test system: CCRF-CEM leukemia
MDA-MB-231 breast = test system: MDA-MB-231 breast
MDA-MB-435 = test system: MDA-MB-435
SF-539 CNS = test system: SF-539 CNS
BT-549 breast = test system: BT-549 breast
SNB-75 CNS = test system: SNB-75 CNS
SNB-19 CNS = test system: SNB-19 CNS
HL-60(TB) leukemia = test system: HL-60(TB) leukemia
MOLT-4 leukemia = test system: MOLT-4 leukemia
UO-31 renal = test system: UO-31 renal
OVCAR-8 ovarian = test system: OVCAR-8 ovarian
DU-145 prostate = test system: DU-145 prostate
NCI-H23 lung = test system: NCI-H23 lung
OVCAR-4 ovarian = test system: OVCAR-4 ovarian
IGROV1 ovarian = test system: IGROV1 ovarian
MCF7 breast = test system: MCF7 breast
NCI-H522 lung = test system: NCI-H522 lung
NCI-H460 lung = test system: NCI-H460 lung
HCC-2998 colon = test system: HCC-2998 colon
U251 CNS = test system: U251 CNS
OVCAR-3 ovarian = test system: OVCAR-3 ovarian
SK-MEL-5 melanoma = test system: SK-MEL-5 melanoma
MALME-3M melanoma = test system: MALME-3M melanoma
HCT-116 colon = test system: HCT-116 colon
A549 NSCLC = test system: A549 NSCLC
A498 renal = test system: A498 renal
OVCAR-5 ovarian = test system: OVCAR-5 ovarian
786-0 renal = test system: 786-0 renal
SF-295 CNS = test system: SF-295 CNS
ACHN renal = test system: ACHN renal
SF-268 CNS = test system: SF-268 CNS
TK-10 renal = test system: TK-10 renal
HT29 colon = test system: HT29 colon
UACC-62 melanoma = test system: UACC-62 melanoma
RPMI-8226 leukemia = test system: RPMI-8226 leukemia
HS 578T breast = test system: HS 578T breast
SR leukemia = test system: SR leukemia
T-47D breast = test system: T-47D breast
RXF 393 renal = test system: RXF 393 renal

**Q.** Which results are given for `c1ccc(-c2nnc(CCCCCCCCc3nnc(-c4ccccc4)o3)o2)cc1`?
**A.** TGI (M14 melanoma): > 100 µM; TGI (SW-620 colon): > 100 µM; TGI (KM12 colon): > 100 µM; TGI (SK-MEL-2 melanoma): > 100 µM; TGI (LOX IMVI melanoma): > 100 µM; TGI (K-562 leukemia): > 100 µM; TGI (HOP-62 NSCLC): > 100 µM; TGI (SK-MEL-28 melanoma): > 100 µM; TGI (COLO 205 colon): > 100 µM; TGI (NCI/ADR-RES ovarian): > 100 µM; TGI (PC-3 prostate): > 100 µM; TGI (SN12C renal): > 100 µM; TGI (SK-OV-3 ovarian): > 100 µM; TGI (NCI-H226 lung): > 100 µM; TGI (HCT-15 colon): > 100 µM; TGI (CAKI-1 renal): > 100 µM; TGI (UACC-257 melanoma): > 100 µM; TGI (HOP-92 NSCLC): > 100 µM; TGI (EKVX NSCLC): > 100 µM; TGI (CCRF-CEM leukemia): > 100 µM; TGI (MDA-MB-231 breast): > 100 µM; TGI (MDA-MB-435): > 100 µM; TGI (SF-539 CNS): > 100 µM; TGI (BT-549 breast): > 100 µM; TGI (SNB-75 CNS): > 100 µM; TGI (SNB-19 CNS): > 100 µM; TGI (HL-60(TB) leukemia): > 100 µM; TGI (MOLT-4 leukemia): > 100 µM; TGI (UO-31 renal): > 100 µM; TGI (OVCAR-8 ovarian): > 100 µM; TGI (DU-145 prostate): > 100 µM; TGI (NCI-H23 lung): > 100 µM; TGI (OVCAR-4 ovarian): > 100 µM; TGI (IGROV1 ovarian): > 100 µM; TGI (MCF7 breast): > 100 µM; TGI (NCI-H522 lung): 61 µM; TGI (NCI-H460 lung): > 100 µM; TGI (HCC-2998 colon): 91.6 µM; TGI (U251 CNS): > 100 µM; TGI (OVCAR-3 ovarian): > 100 µM; TGI (SK-MEL-5 melanoma): > 100 µM; TGI (MALME-3M melanoma): > 100 µM; TGI (HCT-116 colon): > 100 µM; TGI (A549 NSCLC): > 100 µM; TGI (A498 renal): > 100 µM; TGI (OVCAR-5 ovarian): > 100 µM; TGI (786-0 renal): > 100 µM; TGI (SF-295 CNS): > 100 µM; TGI (ACHN renal): > 100 µM; TGI (SF-268 CNS): > 100 µM; TGI (TK-10 renal): > 100 µM; TGI (HT29 colon): > 100 µM

**Q.** Which results are given for `COc1cc(/C=C2\C(=O)Nc3ccccc32)cc(OC)c1O`?
**A.** GI50 (M14 melanoma): 2.76 µM; TGI (M14 melanoma): 11 µM; GI50 (SW-620 colon): 3.39 µM; TGI (SW-620 colon): 13.1 µM; GI50 (KM12 colon): 2.53 µM; TGI (KM12 colon): 11.5 µM; GI50 (LOX IMVI melanoma): 3.99 µM; TGI (LOX IMVI melanoma): 16.3 µM; GI50 (K-562 leukemia): 2.12 µM; TGI (K-562 leukemia): > 100 µM; GI50 (HOP-62 NSCLC): 4.24 µM; TGI (HOP-62 NSCLC): 23.2 µM; GI50 (SK-MEL-28 melanoma): 5.06 µM; TGI (SK-MEL-28 melanoma): 23 µM; GI50 (COLO 205 colon): 12.3 µM; TGI (COLO 205 colon): 26.8 µM; GI50 (NCI/ADR-RES ovarian): 2.47 µM; TGI (NCI/ADR-RES ovarian): 7.62 µM; GI50 (PC-3 prostate): 21 µM; TGI (PC-3 prostate): > 100 µM; GI50 (UACC-62 melanoma): 2.59 µM; TGI (UACC-62 melanoma): 11.1 µM; GI50 (SN12C renal): 3.61 µM; TGI (SN12C renal): 23.3 µM; GI50 (SK-OV-3 ovarian): 3.88 µM; TGI (SK-OV-3 ovarian): 21.6 µM; GI50 (NCI-H226 lung): 17.7 µM; TGI (NCI-H226 lung): > 100 µM; GI50 (HCT-15 colon): 3.16 µM; TGI (HCT-15 colon): 15.1 µM; GI50 (CAKI-1 renal): 2.93 µM; TGI (CAKI-1 renal): 25.3 µM; GI50 (RPMI-8226 leukemia): 5.47 µM; TGI (RPMI-8226 leukemia): 27.5 µM; GI50 (UACC-257 melanoma): 1.81 µM; TGI (UACC-257 melanoma): 18.7 µM; GI50 (HOP-92 NSCLC): 4.15 µM; TGI (HOP-92 NSCLC): 49.2 µM; GI50 (EKVX NSCLC): 4.86 µM; TGI (EKVX NSCLC): 48.2 µM; GI50 (CCRF-CEM leukemia): 5.16 µM; TGI (CCRF-CEM leukemia): > 100 µM; GI50 (MDA-MB-231 breast): 3.09 µM; TGI (MDA-MB-231 breast): 20.8 µM; GI50 (MDA-MB-435): 0.649 µM; TGI (MDA-MB-435): 2.21 µM; GI50 (SF-539 CNS): 2.5 µM; TGI (SF-539 CNS): 13.3 µM; GI50 (HS 578T breast): 1.77 µM; TGI (HS 578T breast): 6.11 µM; GI50 (SNB-75 CNS): 1.17 µM; TGI (SNB-75 CNS): 8.44 µM; GI50 (SR leukemia): 1.6 µM; TGI (SR leukemia): 16.9 µM; GI50 (SNB-19 CNS): 4.45 µM; TGI (SNB-19 CNS): 55.6 µM; GI50 (HL-60(TB) leukemia): 2.8 µM; TGI (HL-60(TB) leukemia): 11.1 µM; GI50 (MOLT-4 leukemia): 3.82 µM; TGI (MOLT-4 leukemia): 92.3 µM; GI50 (UO-31 renal): 2.63 µM; TGI (UO-31 renal): 19.9 µM; GI50 (OVCAR-8 ovarian): 4.98 µM; TGI (OVCAR-8 ovarian): 29.7 µM; GI50 (DU-145 prostate): 5.35 µM; TGI (DU-145 prostate): 46.4 µM; GI50 (NCI-H23 lung): 4.97 µM; TGI (NCI-H23 lung): 34.2 µM; GI50 (OVCAR-4 ovarian): 4.95 µM; TGI (OVCAR-4 ovarian): 31.3 µM; GI50 (IGROV1 ovarian): 3.72 µM; TGI (IGROV1 ovarian): 20.4 µM; GI50 (MCF7 breast): 0.728 µM; TGI (MCF7 breast): 15 µM; GI50 (NCI-H522 lung): 1.72 µM; TGI (NCI-H522 lung): 5.1 µM; GI50 (NCI-H460 lung): 3.12 µM; TGI (NCI-H460 lung): 11.7 µM; GI50 (HCC-2998 colon): 11.9 µM; TGI (HCC-2998 colon): 24.5 µM; GI50 (U251 CNS): 2.37 µM; TGI (U251 CNS): 14 µM; GI50 (OVCAR-3 ovarian): 1.98 µM; TGI (OVCAR-3 ovarian): 5.05 µM; GI50 (SK-MEL-5 melanoma): 2.87 µM; TGI (SK-MEL-5 melanoma): 10.8 µM; GI50 (MALME-3M melanoma): 2.98 µM; TGI (MALME-3M melanoma): 21.8 µM; GI50 (HCT-116 colon): 3.29 µM; TGI (HCT-116 colon): 13.5 µM; GI50 (A549 NSCLC): 4.91 µM; TGI (A549 NSCLC): 48.1 µM; GI50 (A498 renal): 2.08 µM; TGI (A498 renal): 15.8 µM; GI50 (OVCAR-5 ovarian): 4.71 µM; TGI (OVCAR-5 ovarian): 18.8 µM; GI50 (786-0 renal): 7.07 µM; TGI (786-0 renal): 27.5 µM; GI50 (T-47D breast): 3.56 µM; TGI (T-47D breast): 84.5 µM; GI50 (SF-295 CNS): 2.99 µM; TGI (SF-295 CNS): 31.2 µM; GI50 (ACHN renal): 4.7 µM; TGI (ACHN renal): 22.2 µM; GI50 (SF-268 CNS): 4.24 µM; TGI (SF-268 CNS): 29.1 µM; GI50 (TK-10 renal): 7.14 µM; TGI (TK-10 renal): 37.1 µM; GI50 (HT29 colon): 9.07 µM; TGI (HT29 colon): 31.1 µM; GI50 (RXF 393 renal): 2.52 µM; TGI (RXF 393 renal): 8.41 µM
